# Like-named read-outs stand apart in the source and are kept apart here.
# Key:
# L1 wild-type C. elegans [1] = details: for Screen "Hit": 50 μM, KCN survival assay, hit = relative motility below 0.25
# [2] = tested on: ben-1 mutant (ECA882) C. elegans; assay: microbe, parasite or virus in culture; details: Caenorhabditis elegans
# Procedure, shortened: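 Development and viability scored from single well images as total worm pixels divided by the matching DMSO control value, mean of ≥3 replicates. Worms added as synchronized L1s to HB101 suspension in liquid NGM with compound (1% DMSO v/v), grown 6 days at 20 °C with shaking.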
# in vitro = details: human
# L1 wild-type C. elegans [3] = assay: microbe, parasite or virus in culture; details: Caenorhabditis elegans, read-out: C. elegans KCN Survival Assay LC50, estimated from fitted dose-response curves; mean of at least two biological replicates
# [4] = target: B. taurus (heart) complex I (Bos taurus, UniProt P03887+P17694+P42026); assay: biochemical; type: biochemical; details: for IC50: B. taurus heart mitochondria, read-out: B. taurus Complex I IC50; for Log IC50 B. taurus complex I: log10 of IC50 in µM, B. taurus mitochondria
# Sequence of B. taurus (heart) complex I (P03887 whole entry): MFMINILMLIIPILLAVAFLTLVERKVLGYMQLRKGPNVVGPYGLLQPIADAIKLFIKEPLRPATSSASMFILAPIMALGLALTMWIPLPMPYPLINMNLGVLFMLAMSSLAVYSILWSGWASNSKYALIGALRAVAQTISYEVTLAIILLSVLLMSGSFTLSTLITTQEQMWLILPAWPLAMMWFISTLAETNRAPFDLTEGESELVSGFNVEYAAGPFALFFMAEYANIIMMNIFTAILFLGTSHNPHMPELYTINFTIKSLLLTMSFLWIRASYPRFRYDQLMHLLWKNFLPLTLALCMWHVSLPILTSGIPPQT
# Sequence of B. taurus (heart) complex I (P17694 34-463): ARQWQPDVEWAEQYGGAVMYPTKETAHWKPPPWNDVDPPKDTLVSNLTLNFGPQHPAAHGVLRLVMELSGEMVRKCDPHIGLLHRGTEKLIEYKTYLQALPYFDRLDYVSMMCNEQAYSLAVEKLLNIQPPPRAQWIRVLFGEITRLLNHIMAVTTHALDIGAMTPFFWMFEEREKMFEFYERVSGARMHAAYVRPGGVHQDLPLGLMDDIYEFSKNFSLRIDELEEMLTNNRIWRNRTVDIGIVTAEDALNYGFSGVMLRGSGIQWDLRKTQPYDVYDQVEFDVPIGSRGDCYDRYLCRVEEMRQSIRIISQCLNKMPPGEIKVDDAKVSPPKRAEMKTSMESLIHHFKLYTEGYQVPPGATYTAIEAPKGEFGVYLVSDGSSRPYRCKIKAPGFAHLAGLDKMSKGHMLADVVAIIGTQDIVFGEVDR
# Sequence of B. taurus (heart) complex I (P42026 38-216): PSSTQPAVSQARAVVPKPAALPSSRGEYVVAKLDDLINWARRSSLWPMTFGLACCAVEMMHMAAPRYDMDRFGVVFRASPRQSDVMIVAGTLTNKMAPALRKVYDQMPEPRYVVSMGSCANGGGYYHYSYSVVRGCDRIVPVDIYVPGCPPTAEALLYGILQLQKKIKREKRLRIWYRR
# Procedure, shortened: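 Complex I activity followed as DCIP reduction (600 nm, 30 s reads, 15 min) with 80 μM NADH and 60 μM decylubiquinone in 25 mM KPi pH 7.5 containing 2 μM antimycin A and 2 mM KCN. Freeze-thawed mouse or bovine heart mitochondria at 0.2 mg/mL; initial-rate percent of solvent control, single-point 100 μM or dose-response.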
# [5] = read-out: C. elegans (ben-1) Development & Viability Assay LC50
# [6] = read-out: C. elegans ben-1 log10 LC50 (converted)
# [7] = estimated from fitted dose-response curves
# [8] = HEK293 Cell Viability Assay LC50, HEK293 cells, estimated from fitted dose-response curves, mean of at least two biological replicates
compound,measurement,setting,value
Cc1ccc(Cn2c(C(C)C)nc3ccccc32)cc1 [Compound 6586153],"Screen ""Hit""",L1 wild-type C. elegans [1],Y (hits were identified as compounds that reduced relative motility below 0.25 (75% reduction))
same,LC50,[2]; [5],419 µM
same,LC50,[2]; [6],419 µM
same,CC50 at 2 days,"in vitro; HEK293 Cell Viability Assay LC50, HEK293 cells, estimated from fitted dose-response curves",> 100 µM
same,LC50,L1 wild-type C. elegans [3],24.9 µM
same,IC50,[4],57.6 µM
same,Log IC50 B. taurus complex I,[4],1.76 µM
Cc1nc2ccccc2n1Cc1ccccc1Cl [Compound 6707368],"Screen ""Hit""",L1 wild-type C. elegans [1],Y (hits were identified as compounds that reduced relative motility below 0.25 (75% reduction))
same,LC50,[2]; [5],135 µM
same,LC50,[2]; [6],135 µM
same,CC50 at 2 days,in vitro,> 100 µM
same,LC50,L1 wild-type C. elegans [3],8.24 µM
same,IC50,[4]; [7],3.96 µM
same,Log IC50 B. taurus complex I,[4],0.60 µM
Clc1ccc(Cn2cnc3ccccc32)c(Cl)c1 [Compound 6750659],"Screen ""Hit""",L1 wild-type C. elegans [1],Y (hits were identified as compounds that reduced relative motility below 0.25 (75% reduction))
same,C. elegans KCN Survival,"L1 wild-type C. elegans [1]; Dose 0.2 µM, mean of at least three biological replicates",0.888
same,C. elegans KCN Survival,L1 wild-type C. elegans [1]; Dose 0.39 µM,0.896
same,C. elegans KCN Survival,L1 wild-type C. elegans [1]; Dose 1.56 µM,0.908
same,C. elegans KCN Survival,L1 wild-type C. elegans [1]; Dose 3.13 µM,0.544
same,C. elegans KCN Survival,L1 wild-type C. elegans [1]; Dose 6.25 µM,0.267
same,C. elegans KCN Survival,L1 wild-type C. elegans [1]; Dose 12.5 µM,0.023
same,C. elegans KCN Survival,L1 wild-type C. elegans [1]; Dose 25 µM,0.000
same,C. elegans KCN Survival,L1 wild-type C. elegans [1]; Dose 50 µM,0.000
same,C. elegans KCN Survival,L1 wild-type C. elegans [1]; Dose 100 µM,0.000
same,LC50,[2]; [5],42.2 µM
same,LC50,[2]; [6],42.3 µM
same,CC50 at 2 days,in vitro; [8],72.7 µM
same,"viability at 2 days, 3.13 µM","in vitro; HEK293 cells (Flp-In-293), HEK293 viability, Dose 3.13 µM",95.5%
same,"viability at 2 days, 6.25 µM","in vitro; HEK293 cells (Flp-In-293), HEK293 viability, Dose 6.25 µM",100%
same,"viability at 2 days, 12.5 µM","in vitro; HEK293 cells (Flp-In-293), HEK293 viability, Dose 12.5 µM",100%
same,"viability at 2 days, 25 µM","in vitro; HEK293 cells (Flp-In-293), HEK293 viability, Dose 25 µM",100%
same,"viability at 2 days, 50 µM","in vitro; HEK293 cells (Flp-In-293), HEK293 viability, Dose 50 µM",76%
same,"viability at 2 days, 100 µM","in vitro; HEK293 cells (Flp-In-293), HEK293 viability, Dose 100 µM",19.4%
same,LC50,L1 wild-type C. elegans [3],4.28 µM
same,IC50,[4]; [7],2.6 µM
same,activity at 0.0001 µM,"[4]; Dose 0.0001 µM, read-out: B. taurus mitochondrial complex I activity",93.1%
same,activity at 0.0005 µM,"[4]; Dose 0.0005 µM, read-out: B. taurus mitochondrial complex I activity",93.8%
same,activity at 0.001 µM,"[4]; Dose 0.001 µM, read-out: B. taurus mitochondrial complex I activity",91.7%
same,activity at 0.0025 µM,"[4]; Dose 0.0025 µM, read-out: B. taurus mitochondrial complex I activity",100%
same,activity at 0.005 µM,"[4]; Dose 0.005 µM, read-out: B. taurus mitochondrial complex I activity",91.7%
same,activity at 0.013 µM,"[4]; Dose 0.013 µM, read-out: B. taurus mitochondrial complex I activity",94.7%
same,activity at 0.025 µM,"[4]; Dose 0.025 µM, read-out: B. taurus mitochondrial complex I activity",92.7%
same,activity at 0.063 µM,"[4]; Dose 0.063 µM, read-out: B. taurus mitochondrial complex I activity",89.8%
same,activity at 0.125 µM,"[4]; Dose 0.125 µM, read-out: B. taurus mitochondrial complex I activity",83.5%
same,activity at 0.313 µM,"[4]; Dose 0.313 µM, read-out: B. taurus mitochondrial complex I activity",77.1%
same,activity at 0.625 µM,"[4]; Dose 0.625 µM, read-out: B. taurus mitochondrial complex I activity",78.3%
same,activity at 1.5 µM,"[4]; Dose 1.5 µM, read-out: B. taurus mitochondrial complex I activity",60.6%
same,activity at 3 µM,"[4]; Dose 3 µM, read-out: B. taurus mitochondrial complex I activity",42.8%
same,activity at 15 µM,"[4]; Dose 15 µM, read-out: B. taurus mitochondrial complex I activity",8.04%
same,activity at 37.5 µM,"[4]; Dose 37.5 µM, read-out: B. taurus mitochondrial complex I activity",1.6%
same,activity at 75 µM,"[4]; Dose 75 µM, read-out: B. taurus mitochondrial complex I activity",1.94%
same,Log IC50 B. taurus complex I,[4],0.41 µM
C=CCn1c(-c2ccc(N(C)C)cc2)nc2ccccc21 [Compound 6873298],"Screen ""Hit""",L1 wild-type C. elegans [1],Y (hits were identified as compounds that reduced relative motility below 0.25 (75% reduction))
same,LC50,[2]; [5],40.6 µM
same,LC50,[2]; [6],40.6 µM
same,CC50 at 2 days,in vitro; [8],65.3 µM
same,LC50,L1 wild-type C. elegans [3],5.19 µM
same,IC50,[4]; [7],21 µM
same,Log IC50 B. taurus complex I,[4],1.32 µM
